The test system of one data set is Mast cell. As to the kind of experiment: Inhibition of anti-IgE-induced histamine release in rat peritoneal mast cells. In kind it is functional, cell-based.
The nature of data set [1]: Cytotoxicity against rat peritoneal mast cells assessed as cell viability by trypan blue exclusion assay. Type of data set: cell-based. As to conditions: read-out: Activity.

Molecules are shown by their SMILES.

For orientation: IC50 means the midpoint of a concentration-inhibition curve. Lower therefore signals greater potency. Regarding `CC(=O)O[C@H]1CC[C@]2(C)C3=C(CC[C@H]2C1(C)C)[C@]1(C(=O)O)CC[C@H]([C@H](C)CCC=C(C)C)[C@@]1(C)CC3` [ACETYLPENASTEROL], in the data set on Mast cell, the Activity result was “Dose-dependent effect” and the IC50 is 10 µM. The viability in data set [1] worked out at 97%.

On to `CC(C)=CCC[C@@H](C)[C@H]1CC[C@@]2(C(=O)O)C3=C(CC[C@]12C)[C@@]1(C)CCC(=O)C(C)(C)[C@@H]1CC3` [PENASTERONE], for which, in the data set on Mast cell, the Activity entry was “Dose-dependent effect” and the IC50 worked out at 1.5 µM. The viability in data set [1] came to 97%.

These data come from ChEMBL document CHEMBL1150060, “Potent inhibitors of histamine release, two novel triterpenoids from the Okinawan marine sponge Penares incrustans” (J Nat Prod, 1992).
